A word on the IC50: it is the concentration that inhibits the measured activity by half.

These results are taken from US9139587B2, “N1-pyrazolospiroketone acetyl-CoA carboxylase inhibitors” (Pfizer Inc., priority 2009, dated 2015).

Assay [1] addresses T1, recombinant human ACC1 (rhACC1) (Homo sapiens, UniProt Q13085, DEL44-44).
T1 construct: recombinant baculovirus containing full length human ACC1 cDNA; made in house; host or cells: SF9 insect cells (baculovirus)
The experiment in a line: recombinant hACC1 Transcreener assay (direct inhibition of ACC1 activity). Type of assay: biochemical. As to conditions: Transcreener ADP detection FP assay, 50 μM ATP, 30 μM acetyl-CoA, 120 min at 25° C. How it is done: For example direct inhibition of ACC activity, for the compound of Formula (1) was determined using preparations of recombinant human ACC1 (rhACC1) and recombinant human ACC2 (rhACC2). Representative sequences of the recombinant human ACC1 and ACC2 that can be used in the assay are provided in FIG. 1 (SEQ ID NO. 1) and FIG. 2 (SEQ. ID NO. 2), respectively. Preparation of rhACC1. Two liters of SF9 cells, infected with recombinant baculovirus containing full length human ACC1 cDNA, were suspended in ice-cold lysis buffer (25 mM Tris, pH 7.5; 150 mM NaCl; 10% glycerol; 5 mM imidazole (EMD Bioscience; Gibbstown, N.J.); 2 mM TCEP (BioVectra; Charlottetown, Canada); Benzonase nuclease (10000 U/100 g cell paste; Novagen; Madison, Wis.); EDTA-free protease inhibitor cocktail (1 tab/50 mL; Roche Diagnostics; Mannheim, Germany). Cells were lysed by 3 cycles of freeze-thaw and centrifuged at 40,000×g for 40 minutes (4° C.). Supernatant was directly loaded onto a HisTrap FF crude column (GE Healthcare; Piscataway, N.J.) and eluted with an imidazole gradient up to 0.5 M over 20 column volumes (CV). ACC1-containing fractions were pooled and diluted 1:5 with 25 mM Tris, pH 7.5, 2 mM TCEP, 10% glycerol and direct loaded onto a CaptoQ (GE Healthcare) column and eluted with an NaCl gradient up to 1 M over 20 CV's. Phosphate groups were removed from purified ACC1 by incubation with lambda phosphatase (100 U/10 μM target protein; New England Biolabs; Beverly, Mass.) for 14 hours at 4° C.; okadaic acid was added (1 μM final concentration; Roche Diagnostics) to inhibit the phosphatase. Purified ACC1 was exchanged into 25 mM Tris, pH 7.5, 2 mM TCEP, 10% glycerol, 0.5 M NaCl by 6 hour dialysis at 4° C. Aliquots were prepared and frozen at −80° C. […] The final conditions for the assay were 50 mM HEPES, pH 7.2, 10 mM MgCl2, 7.5 mM tripotassium citrate, 2 mM DTT, 0.1 mg/mL BSA, 30 μM acetyl-CoA, 50 μM ATP, and 10 mM KHCO3 Typically, a 10 μl reaction was run for 120 min at 25° C., and 10 μl of Transcreener stop and detect buffer was added and the combination incubated at room temp for an additional 1 hour. The data was acquired on a Envision Fluorescence reader (Perkinelmer) using a 620 excitation Cy5 FP general dual mirror, 620 excitation Cy5 FP filter, 688 emission (S) and a 688 (P) emission filter.

The target in assay [2] is T2, recombinant human ACC2 (rhACC2) (Homo sapiens, UniProt O00763, V2141I).
T2 construct: a full length Cytomax clone of ACC2 was purchased from Cambridge Bioscience Limited; made in house; host or cells: CHO cells (tetracycline-induced, pcDNA5 FRT TO-TOPO)
Briefly: recombinant hACC2 Transcreener assay (direct inhibition of ACC2 activity). Type of assay: biochemical. As to conditions: Transcreener ADP detection FP assay, 50 μM ATP, 30 μM acetyl-CoA, 50 min at 25° C. How it is done: For example direct inhibition of ACC activity, for the compound of Formula (1) was determined using preparations of recombinant human ACC1 (rhACC1) and recombinant human ACC2 (rhACC2). Representative sequences of the recombinant human ACC1 and ACC2 that can be used in the assay are provided in FIG. 1 (SEQ ID NO. 1) and FIG. 2 (SEQ. ID NO. 2), respectively.
[3] Preparation of rhACC2. Human ACC2 inhibition was measured using purified recombinant human ACC2 (hrACC2). Briefly, a full length Cytomax clone of ACC2 was purchased from Cambridge Bioscience Limited and was sequenced and subcloned into PcDNA5 FRT TO-TOPO (Invitrogen, Carlsbad, Calif.). The ACC2 was expressed in CHO cells by tetracycline induction and harvested in 5 liters of DMEM/F12 with glutamine, biotin, hygromycin and blasticidin with 1 μg/mL tetracycline (Invitrogen, Carlsbad, Calif.). The conditioned medium containing ACC2 was then applied to a Softlink Soft Release Avidin column (Promega, Madison, Wis.) and eluted with 5 mM biotin. 4 mgs of ACC2 were eluted at a concentration of 0.05 mg/mL (determined by A280) with an estimated purity of 95% ([…]). The purified ACC2 was dialyzed in 50 mM Tris, 200 mM NaCl, 4 mM DTT, 2 mM EDTA, and 5% glycerol. The pooled protein was frozen and stored at −80° C., with no loss of activity upon thawing. For measurement of ACC2 activity and assessment of ACC2 inhibition, test compounds were dissolved in DMSO and added to the rhACC2 enzyme as a 5× stock with a final DMSO concentration of 1%.
[4] Measurement of human ACC2 inhibition. hACC2 was assayed in a Costar #3676 (Costar, Cambridge, Mass.) 384-well plate using the Transcreener ADP detection FP assay kit (Bellbrook Labs, Madison, Wisconsin) using the manufacturer's recommended conditions for a 50 uM ATP reaction. The final conditions for the assay were 50 mM HEPES, pH 7.2, 5 mM MgCl2, 5 mM tripotassium citrate, 2 mM DTT, 0.1 mg/mL BSA, 30 μM acetyl-CoA, 50 μM ATP, and 8 mM KHCO3 Typically, a 10 μl reaction was run for 50 min at 25° C., and 10 μl of Transcreener stop and detect buffer was added and the combination incubated at room temp for an additional 1 hour. The data was acquired on an Envision Fluorescence reader (Perkinelmer) using a 620 excitation Cy5 FP general dual mirror, 620 excitation Cy5 FP filter, 688 emission (S) and a 688 (P) emission filter.

T2 sequence (O00763 whole entry V2141I): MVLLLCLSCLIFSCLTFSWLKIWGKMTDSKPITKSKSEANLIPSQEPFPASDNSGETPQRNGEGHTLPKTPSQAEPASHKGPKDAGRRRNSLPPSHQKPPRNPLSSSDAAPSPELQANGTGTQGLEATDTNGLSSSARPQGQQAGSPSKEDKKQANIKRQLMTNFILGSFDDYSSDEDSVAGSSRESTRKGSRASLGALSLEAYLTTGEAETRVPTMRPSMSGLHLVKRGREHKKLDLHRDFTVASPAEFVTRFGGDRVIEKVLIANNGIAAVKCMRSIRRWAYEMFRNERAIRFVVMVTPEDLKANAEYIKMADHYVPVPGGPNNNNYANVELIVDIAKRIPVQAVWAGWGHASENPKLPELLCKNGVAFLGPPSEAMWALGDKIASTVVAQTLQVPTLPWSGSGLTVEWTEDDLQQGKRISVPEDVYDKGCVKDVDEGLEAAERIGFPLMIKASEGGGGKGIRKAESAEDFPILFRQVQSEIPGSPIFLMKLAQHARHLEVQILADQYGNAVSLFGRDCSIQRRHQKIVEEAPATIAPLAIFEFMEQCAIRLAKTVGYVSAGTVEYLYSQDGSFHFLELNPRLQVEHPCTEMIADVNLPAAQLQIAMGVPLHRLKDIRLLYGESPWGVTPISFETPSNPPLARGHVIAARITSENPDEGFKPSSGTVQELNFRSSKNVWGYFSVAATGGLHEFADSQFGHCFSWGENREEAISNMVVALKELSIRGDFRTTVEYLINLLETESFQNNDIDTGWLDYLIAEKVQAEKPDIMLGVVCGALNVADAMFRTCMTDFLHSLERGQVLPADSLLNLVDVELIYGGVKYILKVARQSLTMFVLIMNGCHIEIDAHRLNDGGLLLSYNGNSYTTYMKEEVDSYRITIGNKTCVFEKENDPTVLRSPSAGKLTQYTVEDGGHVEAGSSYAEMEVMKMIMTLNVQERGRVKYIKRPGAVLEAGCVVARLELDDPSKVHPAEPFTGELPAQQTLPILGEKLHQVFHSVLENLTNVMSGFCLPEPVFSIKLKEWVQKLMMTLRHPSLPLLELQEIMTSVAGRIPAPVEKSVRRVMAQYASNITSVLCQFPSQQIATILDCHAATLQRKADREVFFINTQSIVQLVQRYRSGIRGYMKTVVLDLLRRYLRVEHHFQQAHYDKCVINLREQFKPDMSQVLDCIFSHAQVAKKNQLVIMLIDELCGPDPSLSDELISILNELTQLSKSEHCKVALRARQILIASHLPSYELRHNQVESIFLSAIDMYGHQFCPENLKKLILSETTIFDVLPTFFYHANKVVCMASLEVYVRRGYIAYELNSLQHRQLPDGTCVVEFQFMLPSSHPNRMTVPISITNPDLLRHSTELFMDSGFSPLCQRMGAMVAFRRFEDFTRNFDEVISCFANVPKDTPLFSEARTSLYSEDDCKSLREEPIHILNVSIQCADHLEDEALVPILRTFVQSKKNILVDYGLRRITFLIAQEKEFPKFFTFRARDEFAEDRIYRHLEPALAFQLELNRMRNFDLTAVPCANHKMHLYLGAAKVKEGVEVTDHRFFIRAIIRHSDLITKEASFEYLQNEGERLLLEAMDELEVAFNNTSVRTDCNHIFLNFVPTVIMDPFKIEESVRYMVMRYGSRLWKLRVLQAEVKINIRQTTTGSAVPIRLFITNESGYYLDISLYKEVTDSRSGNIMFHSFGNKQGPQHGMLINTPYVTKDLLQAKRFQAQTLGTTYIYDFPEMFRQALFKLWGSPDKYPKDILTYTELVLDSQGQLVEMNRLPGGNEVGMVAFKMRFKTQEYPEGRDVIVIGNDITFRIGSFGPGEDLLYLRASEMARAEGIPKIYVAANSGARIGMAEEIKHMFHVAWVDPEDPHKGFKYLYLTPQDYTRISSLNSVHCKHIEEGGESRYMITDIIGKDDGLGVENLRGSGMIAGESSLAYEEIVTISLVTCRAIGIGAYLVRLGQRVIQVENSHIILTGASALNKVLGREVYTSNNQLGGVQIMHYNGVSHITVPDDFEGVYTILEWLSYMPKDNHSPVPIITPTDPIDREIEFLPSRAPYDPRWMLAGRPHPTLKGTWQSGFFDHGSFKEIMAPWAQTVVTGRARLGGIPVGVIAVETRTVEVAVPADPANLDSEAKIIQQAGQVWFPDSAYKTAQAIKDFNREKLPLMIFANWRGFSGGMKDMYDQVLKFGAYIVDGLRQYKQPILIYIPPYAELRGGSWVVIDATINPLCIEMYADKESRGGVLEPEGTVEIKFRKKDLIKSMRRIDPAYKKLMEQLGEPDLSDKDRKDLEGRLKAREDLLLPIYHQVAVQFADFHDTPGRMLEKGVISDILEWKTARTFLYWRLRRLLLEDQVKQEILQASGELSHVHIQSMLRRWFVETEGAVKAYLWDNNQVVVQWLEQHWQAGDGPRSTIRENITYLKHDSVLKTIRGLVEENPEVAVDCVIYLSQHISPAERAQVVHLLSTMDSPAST

For `CC(C)(C)n1ncc2c1C(=O)CC1(CCN(C(=O)c3cc(Cl)c4nc[nH]c4c3)CC1)C2` [Example 2A-48], the IC50 in assay [1] was determined as 51.1 nM; in assay [2], 17.2 nM.
For `Cn1c(=O)[nH]c2ccc(C(=O)N3CCC4(CC3)CC(=O)c3c(cnn3C(C)(C)C)C4)cc21` [Example 2A-49], in that order: 92.1 nM and 71.6 nM.
For `CC(C)(C)n1ncc2c1C(=O)CC1(CCN(C(=O)c3cc(F)c4nc[nH]c4c3)CC1)C2` [Example 2A-51], in that order: 72.7 nM and 29.9 nM.
For `Cc1nc2c(Cl)cc(C(=O)N3CCC4(CC3)CC(=O)c3c(cnn3C(C)C)C4)cc2[nH]1` [Example 2A-52], in that order: 54.2 nM and 19.3 nM.
Take `Cc1nc2c(Cl)cc(C(=O)N3CCC4(CC3)CC(=O)c3c(cnn3C(C)(C)C)C4)cc2[nH]1` [Example 2A-53]: the IC50 in assay [1] was determined as 39.6 nM; in assay [2], 17.2 nM.
For `Cc1nc2c(F)cc(C(=O)N3CCC4(CC3)CC(=O)c3c(cnn3C(C)C)C4)cc2[nH]1` [Example 2A-54], in that order: 214 nM and 51.5 nM.
For `Cc1nc2c(F)cc(C(=O)N3CCC4(CC3)CC(=O)c3c(cnn3C(C)(C)C)C4)cc2[nH]1` [Example 2A-55], in that order: 266 nM and 105 nM.
On the same counts, the results for `CC(C)(C)n1ncc2c1C(=O)CC1(CCN(C(=O)c3cc(Cl)c4[nH]c(=O)[nH]c4c3)CC1)C2` [Example 2A-56] are 31.2 nM and 15.1 nM.
Take `CC(C)n1ncc2c1C(=O)CC1(CCN(C(=O)c3cc(Cl)c4[nH]c(=O)[nH]c4c3)CC1)C2` [Example 2A-57]: the IC50 in assay [1] is 66.5 nM; in assay [2], 20.8 nM.
For `CC(C)n1ncc2c1C(=O)CC1(CCN(C(=O)c3cnc4c(cnn4C)c3N)CC1)C2` [Example 2A-58], in that order: 280 nM and 74.1 nM.
For `Cn1ncc2c(N)c(C(=O)N3CCC4(CC3)CC(=O)c3c(cnn3C(C)(C)C)C4)cnc21` [Example 2A-59], in that order: 115 nM and 69.2 nM.
On the same counts, the results for `Cc1noc(-c2cc(C(=O)N3CCC4(CC3)CC(=O)c3c(cnn3C(C)C)C4)ccn2)n1` [Example 2A-60] are 8240 nM and 3990 nM.
As to `CC(C)n1ncc2c1C(=O)CC1(CCN(C(=O)c3cnc4ccccc4n3)CC1)C2` [Example 2A-61], the IC50 in assay [1] stood at 2320 nM; in assay [2], 2190 nM.
On the same counts, the results for `CC(=O)Nc1cccc(C(=O)N2CCC3(CC2)CC(=O)c2c(cnn2C(C)C)C3)n1` [Example 2A-62] are 4210 nM and 1280 nM.
On the same counts, the results for `CC(C)n1ncc2c1C(=O)CC1(CCN(C(=O)c3ccc4cnccc4n3)CC1)C2` [Example 2A-63] are 9330 nM and 3200 nM.
`CC(C)n1ncc2c1C(=O)CC1(CCN(C(=O)c3cc4ccncc4[nH]3)CC1)C2` [Example 2A-64]: the IC50 in assay [1] was found to be 229 nM; in assay [2] it was 253 nM.
On the same counts, the results for `CC(C)n1ncc2c1C(=O)CC1(CCN(C(=O)c3cc(Cl)c4cn[nH]c4c3)CC1)C2` [Example 2A-65] are 74.9 nM and 51.5 nM.
For `CC(C)n1ncc2c1C(=O)CC1(CCN(C(=O)c3cnc(N4CCOCC4)nc3)CC1)C2` [Example 2A-66], in that order: 30000 nM and 14000 nM.
Take `CC(C)n1ncc2c1C(=O)CC1(CCN(C(=O)c3cc4[nH]ccn4n3)CC1)C2` [Example 2A-67]: the IC50 amounted to 799 nM in assay [1] and 653 nM in assay [2].
For `CC(C)n1ncc2c1C(=O)CC1(CCN(C(=O)c3ccc4cn[nH]c4c3)CC1)C2` [Example 2A-68], in that order: 68.4 nM and 51.2 nM.
On the same counts, the results for `CC(C)n1ncc2c1C(=O)CC1(CCN(C(=O)c3ccc4ncccc4c3O)CC1)C2` [Example 2A-69] are 122 nM and 42.9 nM.
As to `CC(C)n1ncc2c1C(=O)CC1(CCN(C(=O)c3c(O)cnc4ccccc34)CC1)C2` [Example 2A-70], the 50% inhibitory concentration (IC50) in assay [1] worked out at 9790 nM; in assay [2] it was 3760 nM.
